Assay [1] has as its target T1, JMJD2E (Homo sapiens, UniProt B2RXH2).
T1 sequence (B2RXH2 1-337): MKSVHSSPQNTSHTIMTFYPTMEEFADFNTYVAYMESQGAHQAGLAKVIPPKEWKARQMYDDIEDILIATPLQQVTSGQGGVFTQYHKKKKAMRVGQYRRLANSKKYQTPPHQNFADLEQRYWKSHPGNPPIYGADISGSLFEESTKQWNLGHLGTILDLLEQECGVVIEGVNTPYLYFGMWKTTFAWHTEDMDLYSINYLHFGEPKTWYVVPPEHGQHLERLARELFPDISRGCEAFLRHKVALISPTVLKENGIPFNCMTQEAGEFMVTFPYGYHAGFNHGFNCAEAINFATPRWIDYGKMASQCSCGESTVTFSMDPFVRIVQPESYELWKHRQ
Kind of assay: JMJD2E-peptide binding AlphaScreen assay. In general terms: Alpha assays give light when donor and acceptor beads are brought close together.

Assay [2] concerns the target histone H3K9me3 peptide (Homo sapiens) (UniProt P68431). Kind of assay: SPR. The note with it: cited from earlier work.
Assay [3] addresses T1, JMJD2E. The note with it: read-out: IC50 (FDH), cited from earlier work.
The target of assay [4] is T1, JMJD2E. The note with it: cited from earlier work.
Assay [5] concerns the target T2, N-terminally His-tagged catalytic domain of recombinant JMJD2E (residues 1-337) (UniProt B2RXH2 1-337).
T2 sequence (looked up): T1 sequence (B2RXH2 1-337)
Kind of assay: AlphaScreen or HTRF.

Like-named read-outs stand apart in the source and are kept apart here. Primed or numbered codes have the meaning given here. Ends that are not written are not given here. Me3 = trimethyl on the lysine side chain; Me3″ = trimethyl (on lysine) Where only a bound is given, the exact number is not on record here.

The values below come from article PMC4673899 (Analytical biochemistry, 2010).

One may read the Kd as the concentration at which binding is half-saturated. The IC50 is the concentration that inhibits the measured activity by half. As a reminder, the Km is the concentration of substrate that gives half-maximal velocity.

Chain of JMJD2A (O75164 2-1064): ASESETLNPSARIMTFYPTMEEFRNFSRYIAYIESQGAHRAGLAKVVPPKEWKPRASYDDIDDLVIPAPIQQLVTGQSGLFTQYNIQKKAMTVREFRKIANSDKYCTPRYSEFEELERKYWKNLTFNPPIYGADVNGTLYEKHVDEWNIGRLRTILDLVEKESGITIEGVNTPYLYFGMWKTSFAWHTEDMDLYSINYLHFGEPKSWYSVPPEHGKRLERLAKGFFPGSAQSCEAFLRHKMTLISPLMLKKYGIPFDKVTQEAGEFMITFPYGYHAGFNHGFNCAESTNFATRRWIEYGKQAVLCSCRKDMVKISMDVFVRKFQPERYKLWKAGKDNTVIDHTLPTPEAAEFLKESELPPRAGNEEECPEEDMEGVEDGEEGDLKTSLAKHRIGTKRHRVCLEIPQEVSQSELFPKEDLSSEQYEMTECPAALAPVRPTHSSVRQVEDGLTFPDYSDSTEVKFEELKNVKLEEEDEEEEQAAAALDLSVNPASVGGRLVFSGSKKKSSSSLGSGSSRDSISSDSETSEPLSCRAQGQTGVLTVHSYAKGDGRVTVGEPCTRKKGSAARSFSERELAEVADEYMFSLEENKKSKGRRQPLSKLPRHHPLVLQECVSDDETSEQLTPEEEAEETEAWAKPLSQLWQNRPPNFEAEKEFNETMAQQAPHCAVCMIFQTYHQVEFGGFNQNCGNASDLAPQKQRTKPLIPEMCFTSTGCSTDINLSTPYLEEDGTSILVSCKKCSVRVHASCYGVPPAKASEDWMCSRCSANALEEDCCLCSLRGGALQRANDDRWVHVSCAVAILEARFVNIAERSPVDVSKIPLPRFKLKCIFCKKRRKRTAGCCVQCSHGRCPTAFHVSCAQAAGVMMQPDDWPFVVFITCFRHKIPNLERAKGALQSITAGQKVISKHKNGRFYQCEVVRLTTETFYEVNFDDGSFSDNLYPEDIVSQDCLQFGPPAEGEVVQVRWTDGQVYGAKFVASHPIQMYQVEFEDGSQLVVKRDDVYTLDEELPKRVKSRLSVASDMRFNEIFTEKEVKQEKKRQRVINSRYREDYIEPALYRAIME

With “H3(6-21)K9Me3: histone H3 residues 6-21 peptide with tri-methyl lysine 9 (TARK(Me3″)STGGKAPRKQLA-NH2)”, in assay [1] (competition of unlabelled peptide with biotin-H3(1-15)K9Me3), the “relative JMJD2E affinity in the binding assay” value is on record as “higher JMJD2E affinity than H3(1-15)K9Me3”.
Consider JMJD2A (from UniProt O75164), for which the equilibrium dissociation constant (Kd) in assay [2] is 1 µM.
With `O=C(O)c1ccc(C(=O)O)nc1` [Compound 3, 2,5-PDCA], the half-inhibitory concentration (IC50) in assay [3] (listed as 2,5-PDCA (3)) is 180 µM.
Regarding `O=C(O)CCC(=O)C(=O)O` [Compound 2OG, 2-oxoglutarate], the “concentration at signal maximum in binding assay” value in assay [1] (JMJD2E pre-incubated with 2OG prior to biotinylated-H3(1-15)K9Me3) lay within 10 to 30 µM. Moreover, in assay [4], the Km is 14 µM.
On to `O=C(O)c1ccc(C(=O)O)nc1` [Compound 4, 3,6-PDCA], for which, in assay [3] (listed as 3,6-PDCA (4)), the IC50 is over 1000 µM.
Turning to `O=C(O)c1cccnc1C(=O)O` [Compound 2, 2,3-PDCA], in assay [3], the IC50 is over 5000 µM.
Regarding ARTKQTARKSTGGKA (peptide, UniProt P68431 2-16, looked up, trimethyl-lysine at K9; C-terminal amide) [unlabelled H3(1-15)K9Me3 peptide], the IC50 in assay [5] was 1.2 µM.
Consider TARK(Me3)STGGKAPRKQLA-NH2 (peptide, UniProt P68431 7-22, looked up) [H3(6-21)K9Me3 peptide], for which the binding result in assay [5] is reported as “binds”.
